# Measurements reported in patent EP2975030B1, “DIHYDROPYRIDAZINE-3,5-DIONE DERIVATIVE” (Chugai Seiyaku Kabushiki Kaisha, priority 2013, dated 2014).
# Test system: rat small-intestinal brush border membrane vesicles
# Assay: Inhibitory effect on 33PO4 uptake into rat small-intestinal brush border membrane vesicles (rapid filtration method)
# Assay type: biochemical, Wistar female rat
# Settings: 1 µM test compound; 33PO4 uptake into rat small-intestinal BBMVs, 60 seconds
# Outline: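 33PO4 uptake into rat small-intestinal brush border membrane vesicles measured by rapid filtration. Reactions were stopped with ice-cold buffer (110 mM NaCl, 1 mM KH2PO4, 10 mM HEPES pH 7.5), filtered and washed. Vesicle-associated radioactivity was counted by liquid scintillation.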
row,Compound,Rate of uptake inhibition (%) (1 µM)
1,CN(CCOc1ccc(CN2C(=O)C(C(=O)Nc3ccc(C(F)(F)F)cc3-c3cc(C(F)(F)F)ncn3)=C(O)C3(CCCC3)N2C)c(F)c1F)C1CCOC1 (centres unmarked) [Example 366],38
2,CN1N(Cc2ccc(OCCN3C4CCC3COC4)c(F)c2F)C(=O)C(C(=O)Nc2ccc(C(F)(F)F)cc2-c2cc(C(F)(F)F)ncn2)=C(O)C12CCCC2 [Example 367],43
3,COC(=O)CN(C)CCOc1ccc(CN2C(=O)C(C(=O)Nc3ccc(C(F)(F)F)cc3-c3cc(C(F)(F)F)ncn3)=C(O)C3(CCCC3)N2C)c(F)c1F [Example 368],26
4,CN1N(Cc2ccc(OCCN3CC(F)(F)C3)c(F)c2F)C(=O)C(C(=O)Nc2ccc(C(F)(F)F)cc2-c2cc(C(F)(F)F)ncn2)=C(O)C12CCCC2 [Example 369],43
5,C[C@@H]1COC[C@H](C)N1CCOc1ccc(CN2C(=O)C(C(=O)Nc3ccc(C(F)(F)F)cc3-c3cc(C(F)(F)F)ncn3)=C(O)C3(CCCC3)N2C)c(F)c1F [Example 370],41
6,CN1N(Cc2ccc(OCCN3CCOCC3(C)C)c(F)c2F)C(=O)C(C(=O)Nc2ccc(C(F)(F)F)cc2-c2cc(C(F)(F)F)ncn2)=C(O)C12CCCC2 [Example 371],38
7,COCC(C)(C)N(C)CCOc1ccc(CN2C(=O)C(C(=O)Nc3ccc(C(F)(F)F)cc3-c3cc(C(F)(F)F)ncn3)=C(O)C3(CCCC3)N2C)c(F)c1F [Example 372],38
8,CN(CCO)CCOc1ccc(CN2C(=O)C(C(=O)Nc3ccc(C(F)(F)F)cc3-c3cc(C(F)(F)F)ncn3)=C(O)C3(CCCC3)N2C)c(F)c1F [Example 373],27
9,CN1N(Cc2ccc(OCCN3CCC(N4CCOCC4)CC3)c(F)c2F)C(=O)C(C(=O)Nc2ccc(C(F)(F)F)cc2-c2cc(C(F)(F)F)ncn2)=C(O)C12CCCC2 [Example 374],42
10,COC[C@@H]1CCCN1CCOc1ccc(CN2C(=O)C(C(=O)Nc3ccc(C(F)(F)F)cc3-c3cc(C(F)(F)F)ncn3)=C(O)C3(CCCC3)N2C)c(F)c1F [Example 375],31
11,CN1N(Cc2ccc(OCCN3CCN(CCO)CC3)c(F)c2F)C(=O)C(C(=O)Nc2ccc(C(F)(F)F)cc2-c2cc(C(F)(F)F)ncn2)=C(O)C12CCCC2 [Example 376],33
12,COCCN1CCN(CCOc2ccc(CN3C(=O)C(C(=O)Nc4ccc(C(F)(F)F)cc4-c4cc(C(F)(F)F)ncn4)=C(O)C4(CCCC4)N3C)c(F)c2F)CC1 [Example 377],29
13,CN1N(Cc2ccc(OCCN3CCN(CCOCCO)CC3)c(F)c2F)C(=O)C(C(=O)Nc2ccc(C(F)(F)F)cc2-c2cc(C(F)(F)F)ncn2)=C(O)C12CCCC2 [Example 378],35
14,CN1N(Cc2ccc(OCCN3CCN(S(C)(=O)=O)CC3)c(F)c2F)C(=O)C(C(=O)Nc2ccc(C(F)(F)F)cc2-c2cc(C(F)(F)F)ncn2)=C(O)C12CCCC2 [Example 379],137
15,CN1N(Cc2ccc(OCCN3[C@@H]4COC[C@H]3C4)c(F)c2F)C(=O)C(C(=O)Nc2ccc(C(F)(F)F)cc2-c2cc(C(F)(F)F)ncn2)=C(O)C12CCCC2 [Example 380],43
16,"CN1N(Cc2ccc(OCCN[C@@H](CC(=O)O)C(=O)O)c(F)c2F)C(=O)C(C(=O)Nc2ccc(C(F)(F)F)cc2-c2cc(C(F)(F)F)ncn2)=C(O)C12CCCC2 [Example 381, (2S)-2-[2-[2,3-Difluoro-4-[[10-hydroxy-6-methyl-8-oxo-9-[[4-(trifluoromethyl)-2-[6-(-trifluoromethyl)pyrimidin-4-yl]phenyl]carbamoyl]-6,7-diazaspiro[4.5]dec-9-en-7-yl]methyl]phenoxy]ethylamino]butanedioate]",28
17,"CN1N(Cc2ccc(OCCNC(CC(=O)O)CC(=O)O)c(F)c2F)C(=O)C(C(=O)Nc2ccc(C(F)(F)F)cc2-c2cc(C(F)(F)F)ncn2)=C(O)C12CCCC2 [Example 382, 3-[2-[2,3-Difluoro-4-[[10-hydroxy-6-methyl-8-oxo-9-[[4-(trifluoromethyl)-2-[6-(trifluoromethyl)pyrimidin-4-yl]phenyl]carbamoyl]-6,7-diazaspiro[4.5]dec-9-en-7-yl]methyl]phenoxy]ethylamino]pentanedioate]",21
18,"CN1N(Cc2ccc(OCCCOC[C@H](O)CO)c(F)c2F)C(=O)C(C(=O)Nc2ccc(C(F)(F)F)cc2-c2ccc(C(F)(F)F)nc2)=C(O)C12CCC2 [Example 383, 6-[[4-[3-[(2R)-2,3-Dihydroxypropoxy]propoxy]-2,3-difluorophenyl]methyl]-9-hydroxy-5-methyl-7-oxo-N-[4-(trifluoromethyl)-2-[6-(trifluoromethyl)pyrydin-3-yl]phenyl]-5,6-diazaspiro[3.5]non-8-ene-8-carboxamide]",126
19,CN1N(Cc2ccc(OCCCCOC[C@H](O)CO)c(F)c2F)C(=O)C(C(=O)Nc2ccc(C(F)(F)F)cc2-c2ccc(C(F)(F)F)nc2)=C(O)C12CCC2 [Example 384],39

row,Compound,Rate of uptake inhibition (%) (1 µM)
1,CN1N(Cc2ccc(OCCCCCOC[C@H](O)CO)c(F)c2F)C(=O)C(C(=O)Nc2ccc(C(F)(F)F)cc2-c2ccc(C(F)(F)F)nc2)=C(O)C12CCC2 [Example 385],39
2,CN1N(Cc2ccc(OCCCOC[C@H](O)CO)c(F)c2F)C(=O)C(C(=O)Nc2ccc(C(F)(F)F)cc2-c2ccc(C(F)(F)F)nc2)=C(O)C12CCCC2 [Example 386],36
3,CN1N(Cc2ccc(OCCCCOC[C@H](O)CO)c(F)c2F)C(=O)C(C(=O)Nc2ccc(C(F)(F)F)cc2-c2ccc(C(F)(F)F)nc2)=C(O)C12CCCC2 [Example 387],23
4,CN1N(Cc2ccc(OCCCCCOC[C@H](O)CO)c(F)c2F)C(=O)C(C(=O)Nc2ccc(C(F)(F)F)cc2-c2ccc(C(F)(F)F)nc2)=C(O)C12CCCC2 [Example 388],15
5,CN1N(Cc2ccc(OCCCOC[C@H](O)CO)c(F)c2F)C(=O)C(C(=O)Nc2ccc(C(F)(F)F)cc2-c2cc(C(F)(F)F)ncn2)=C(O)C12CCC2 [Example 389],29
6,CN1N(Cc2ccc(OCCCCOC[C@H](O)CO)c(F)c2F)C(=O)C(C(=O)Nc2ccc(C(F)(F)F)cc2-c2cc(C(F)(F)F)ncn2)=C(O)C12CCC2 [Example 390],58
7,CN1N(Cc2ccc(OCCCCCOC[C@H](O)CO)c(F)c2F)C(=O)C(C(=O)Nc2ccc(C(F)(F)F)cc2-c2cc(C(F)(F)F)ncn2)=C(O)C12CCC2 [Example 391],42
8,CN1N(Cc2ccc(OCCCOC[C@H](O)CO)c(F)c2F)C(=O)C(C(=O)Nc2ccc(C(F)(F)F)cc2-c2cc(C(F)(F)F)ncn2)=C(O)C12CCCC2 [Example 392],47
9,CN1N(Cc2ccc(OCCCCOC[C@H](O)CO)c(F)c2F)C(=O)C(C(=O)Nc2ccc(C(F)(F)F)cc2-c2cc(C(F)(F)F)ncn2)=C(O)C12CCCC2 [Example 393],45
10,CN1N(Cc2ccc(OCCCCCOC[C@H](O)CO)c(F)c2F)C(=O)C(C(=O)Nc2ccc(C(F)(F)F)cc2-c2cc(C(F)(F)F)ncn2)=C(O)C12CCCC2 [Example 394],45
11,CN1N(Cc2ccc(OCCCOCCO)c(F)c2F)C(=O)C(C(=O)Nc2ccc(C(F)(F)F)cc2-c2cc(C(F)(F)F)ncn2)=C(O)C12CCCC2 [Example 395],39
12,CN1N(Cc2ccc(OCCCCOCCO)c(F)c2F)C(=O)C(C(=O)Nc2ccc(C(F)(F)F)cc2-c2cc(C(F)(F)F)ncn2)=C(O)C12CCCC2 [Example 396],38
13,CN1N(Cc2ccc(OCCCCCOCCO)c(F)c2F)C(=O)C(C(=O)Nc2ccc(C(F)(F)F)cc2-c2cc(C(F)(F)F)ncn2)=C(O)C12CCCC2 [Example 397],40
14,CN1N(Cc2ccc(OCCCOCCCO)c(F)c2F)C(=O)C(C(=O)Nc2ccc(C(F)(F)F)cc2-c2cc(C(F)(F)F)ncn2)=C(O)C12CCCC2 [Example 398],34
15,CN1N(Cc2ccc(OCCCCOCCCO)c(F)c2F)C(=O)C(C(=O)Nc2ccc(C(F)(F)F)cc2-c2cc(C(F)(F)F)ncn2)=C(O)C12CCCC2 [Example 399],42
16,CN1N(Cc2ccc(OCCCCCOCCCO)c(F)c2F)C(=O)C(C(=O)Nc2ccc(C(F)(F)F)cc2-c2cc(C(F)(F)F)ncn2)=C(O)C12CCCC2 [Example 400],36
17,COCCOCCOc1ccc(CN2C(=O)C(C(=O)Nc3ccc(C(F)(F)F)cc3-c3cc(C(F)(F)F)ncn3)=C(O)C3(CCC3)N2C)c(F)c1F [Example 401],39
18,"CN(CCOc1ccc(CN2C(=O)C(C(=O)Nc3ccc(C(F)(F)F)cc3-c3cc(C(F)(F)F)ncn3)=C(O)C3(CCC3)N2C)c(F)c1F)C1COC1 [Example 402, 6-(2,3-Difluoro-4-(2-(methyl(oxetan-3-yl)amino)ethoxy)benzyl)-9-hydroxy-5-methyl-7-oxo-N-(4-(trifluorometyl)-2-(6-(trifluoromtthyl)pyrimidin-4-yl)phenyl)-5,6-diazaspiro[3.5]non-8-ene-8-carboxamide]",54
19,"CN1N(Cc2ccc(OC3COC3)c(F)c2F)C(=O)C(C(=O)Nc2ccc(C(F)(F)F)cc2-c2cc(C(F)(F)F)ncn2)=C(O)C12CCC2 [Example 403, 6-(2,3-Difluoro-4-(oxetan-3-yloxy)benzyl)-9-hydroxy-5-methyl-7-oxo-N-(4-(trifluoromethyl)-2-(6-(trifluoromethyl)pyrimidin-4-yl)phenyl)-5,6-diazaspiro[3.5]non-8-ene-8-carboxamide]",71
